Among the data in ChEMBL document CHEMBL1126991, “Isatin oximes - A novel series of bioavailable non-NMDA antagonists” (Bioorg Med Chem Lett, 1993) are IC50 and ED50 values, retold here.

For assay [1], the species on record is Rattus norvegicus. Briefly: Tested for the ability to inhibit NMDA (20 uM) induced depolarizations in rat cortical wedge preparation. In kind it is functional.
Assay [2] addresses Glutamate receptor ionotropic, kainate.
Description: Tested for the inhibition of binding of [3H]kainate radioligand to Ionotropic glutamate receptor kainate of cortical membranes from rat brain
In assay [3] the target is Glutamate receptor ionotropic, AMPA (Rattus norvegicus, UniProt P19490+P19491+P19492+P19493). Briefly: Tested for the inhibition of binding of [3H]AMPA radioligand to Ionotropic glutamate receptor AMPA to cortical membranes from rat brain.
Assay [4] is filed under the species Rattus norvegicus. Briefly: Tested for the ability to inhibit AMPA (5 uM) induced depolarizations in rat cortical wedge preparation. The class given is functional.
Assay [5] is filed under the species Mus musculus. The experiment in a line: Tested for the effective dosage required for the protection against AMPA induced seizures. In kind it is functional.
For assay [6], the species on record is Mus musculus. The experiment in a line: Tested for the [Ca2+] i induced elevation using cultured mouse cortical neurons, exposed to 50 uM NMDA for 4 minutes. The class given is functional.
The species entered for assay [7] is Mus musculus. The experiment in a line: Tested for the [Ca2+] i induced elevation using cultured mouse cortical neurons, exposed to 5 uM AMPA for 4 minutes. In kind it is functional.

For `CN(C)S(=O)(=O)c1cc2c(N=O)c(O)[nH]c2c2c1CCCC2`, the IC50 in the assay filed under Rattus norvegicus [1] was above 30 µM; in assay [2], 27 µM; in assay [3], 1.8 µM; in the assay filed under Rattus norvegicus [4], 3.5 µM; in the assay listed under Mus musculus [6] it was above 30 µM; in the assay listed under Mus musculus [7], 5.4 µM. Moreover, in the assay filed under Mus musculus [5], the 50% effect level (ED50) was put at a dose of 3 mg/kg.

As to `CNS(=O)(=O)c1cc2c(N=O)c(O)[nH]c2c2c1CCCC2`, the 50% inhibitory concentration (IC50) is above 30 µM in the assay filed under Rattus norvegicus [1]; 30 µM in assay [2]; 2.8 µM in assay [3]; 5.2 µM in the assay filed under Rattus norvegicus [4]; above 30 µM in the assay listed under Mus musculus [6]; 11 µM in the assay filed under Mus musculus [7]. The same molecule registered an ED50 in the assay listed under Mus musculus [5] of 30 mg/kg.

Take `NS(=O)(=O)c1cccc2c1c([N+](=O)[O-])cc1nc(O)c(O)nc12` [NBQX]: the 50% inhibitory concentration (IC50) in the assay filed under Rattus norvegicus [1] was above 30 µM; in the assay listed under Rattus norvegicus [4], 0.3 µM; in the assay listed under Mus musculus [6], above 30 µM; in the assay filed under Mus musculus [7] it was 0.3 µM. Also, the ED50 in the assay filed under Mus musculus [5] is 10 mg/kg.

Take `O=Nc1c(O)[nH]c2c3c(c([N+](=O)[O-])cc12)CCCC3`: the IC50 is above 30 µM in the assay filed under Rattus norvegicus [1]; above 30 µM in assay [2]; 8.1 µM in assay [3]; above 30 µM in the assay listed under Rattus norvegicus [4]; above 30 µM in the assay filed under Mus musculus [6]; above 30 µM in the assay listed under Mus musculus [7]. Besides, in the assay filed under Mus musculus [5], the median effective dose (ED50) was above 30 mg/kg.

As for `O=C1Nc2c(ccc3c2CCCC3)/C1=N/O`, the IC50 in assay [2] and in assay [3] was above 30 µM throughout. This molecule had a median effective dose (ED50) in the assay listed under Mus musculus [5] above 30 mg/kg.

Take `N#Cc1cc2c(cc1[N+](=O)[O-])=NC(=O)C(=O)N=2`: the 50% effect level in the assay filed under Mus musculus [5] (ED50) was put at a dose of 10 mg/kg.

In the case of `NS(=O)(=O)c1cc2c(N=O)c(O)[nH]c2c2c1CCCC2`, the IC50 is above 30 µM in the assay listed under Rattus norvegicus [1]; 24.5 µM in assay [2]; 2.8 µM in assay [3]; 2.5 µM in the assay filed under Rattus norvegicus [4]; above 30 µM in the assay listed under Mus musculus [6]; 3.5 µM in the assay listed under Mus musculus [7]. The ED50 in the assay listed under Mus musculus [5] is above 30 mg/kg.

The term IC50 denotes the concentration at which inhibition is half-maximal. Low readings indicate greater potency in that assay, high ones weaker potency in that assay. For orientation: ED50 means the midpoint of the dose-response relation. A higher ED50 goes with a need for a large dose.
